Data published in US7767398B2, “Means and methods for diagnosing and treating affective disorders” (Affectis Pharmaceuticals AG, priority 2003, dated 2010).

Tests used:
[1] = target: T1, P2X7R (Mus musculus, UniProt Q9Z1M0); assay: Calcium influx into HT-22 cells (Oregon green AM ester); format: cell-based; parameters: dose or concentration left out as unconfirmed; details: HT-22 cells pre-treated with oATP for 1 hour before BzATP
T1 construct: an immortalised mouse hippocampal cell line expressing the endogenous P2X7 gene; endogenous in cells; host or cells: HT-22 mouse hippocampal cell line
T1 sequence (Q9Z1M0 1-595): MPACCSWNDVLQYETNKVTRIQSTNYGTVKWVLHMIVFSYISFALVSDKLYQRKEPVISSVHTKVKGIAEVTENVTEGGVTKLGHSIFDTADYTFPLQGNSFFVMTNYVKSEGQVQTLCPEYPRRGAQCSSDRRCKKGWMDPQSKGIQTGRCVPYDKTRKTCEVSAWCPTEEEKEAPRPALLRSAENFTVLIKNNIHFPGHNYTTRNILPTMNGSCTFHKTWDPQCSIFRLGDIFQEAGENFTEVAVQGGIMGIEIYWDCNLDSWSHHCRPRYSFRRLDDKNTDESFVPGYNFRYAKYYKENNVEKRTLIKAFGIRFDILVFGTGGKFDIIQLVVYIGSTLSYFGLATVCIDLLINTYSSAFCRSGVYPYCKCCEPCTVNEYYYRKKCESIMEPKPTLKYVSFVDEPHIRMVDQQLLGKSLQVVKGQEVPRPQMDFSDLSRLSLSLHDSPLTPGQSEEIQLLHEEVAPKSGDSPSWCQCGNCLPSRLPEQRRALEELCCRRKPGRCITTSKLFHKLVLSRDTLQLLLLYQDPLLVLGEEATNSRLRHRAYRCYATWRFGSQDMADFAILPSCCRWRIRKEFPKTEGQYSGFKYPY
Excerpt: Since P2X7R is an ATP-gated ion channel which allows the entry of calcium and sodium ions into cells, a method for identifying P2X7R agonist was established by monitoring calcium influx into HT-22 cells. […] Calcium movement into the cells was visualised under a fluorescent microscope with a fluorescein filter (wavelength 492/517 nm). Oregon green AM ester is a fluorescent dye that binds to intracellular calcium. […] Alternatively, Oregon green AM ester can be replaced by Fluo-3, fluo-4, fluo-5F, fluo-5N, fluo4FF, Fluo4 dextran, Fluo-3 AM, Fluo-4 AM, Fluo-5F AM, Fluo-5N AM and Fluo4FF AM (Molecular Probes). Calcium influx in HT-22 cells can also be measured in 96-well and 384-well microplate using the Calcium Plus Assay Kit (Molecular Device) or FLIPR® Calcium Assay Kit for Fluorometric Imaging Plate Reader Systems (Molecular Device). HT-22 cells can be replaced by any cells expressing P2X7R, including cells that have been genetically modified by introducing an exogenous P2X7 gene.
Activation of P2X7R by the agonist was inhibited by oATP (FIG. 18) as illustrated by the absence of green fluorescence in the cells.

[2] = target: T1, P2X7R; assay: Entry of ethidium bromide into HT-22 cells; format: cell-based; details: pre-incubation 60 minutes with 100 μM o-ATP before agonist and ethidium bromide
Excerpt: Yet another method of measuring P2X7R activity involves the entry of ethidium bromide into P2X7R expressing cells. Activation of P2X7R by an agonist allows the entry of ethidium bromide which binds nuclear DNA and emits a fluorescence signal. Alternatively, the propidium dye YOPRO-1 can be substituted for ethidium bromide. An increase in fluorescence can be used as a measure of P2X7 receptor activation. Therefore, the assay can be used to test and quantify the effect of an agent or compound with agonist properties on P2X7R. In the present example, 10^3 HT-22 cells were seeded per well in a 96-well flat bottom microtitre plates and incubated at 37° C./5% CO2 in DMEM medium containing 10% FCS until the cells attached to the culture surface. […] The number of fluorescent cells which have integrated the ethidium bromide to the DNA can then be counted using a fluorescent microscope (Zeiss, Germany). […] Alternatively, ethidium bromide fluorescence can be measured using a Perkin-Elmer fluorescent plate reader (excitation 520 nm, emission 595 nm, slit widths: Ex 15 nm, Em 20 nm). From the readings obtained, a pIC50 figure can be calculated for each candidate agent or compound. […] The specificity of an agonist for P2X7R can be evaluated by pre-incubation of the cells for 60 minutes with 100 μM o-ATP before adding the agonist and ethidium bromide dye.

[3] = system: mice; assay: Porsolt's forced swim test; format: in vivo, mouse; details: 100 nM KN-62 or 10 μM oATP, 1 μl each side, dentate gyrus; 24 hours after injection; DBA/201a mice
Description: Further validation of role of P2X7R in affective disorders was performed by examining its expression pattern in response to stress and treatment with antidepressant drugs. […] In parallel, a control group of mice was given vehicle solution (i.e. without paroxetine) using the same treatment regiment while a second control group of mice was left undisturbed and stress-free (i.e. untreated) during the same period of the experiments. At the end of the long-term treatment, part of the mice of each experimental group were tested in the dark/light box (test of anxiety behaviour) and in the Porsolt's forced swim test (test of depressive-like behaviour) to confirm the effectiveness of the treatment (FIG. 5). […] The other part of the experimental groups (i.e. mice without test experience) were decapitated, brains rapidly removed and frozen at −80° C. until usage.
The effects of P2X7R inhibition on depressive-like behaviour was assessed 24 hours and 48 hours after infusion of siRNA, control or vehicle according to the standard test paradigm, the Porsolt's forced swim test (Porsolt et al., Arch. Int. Pharmacodym. 229 (1977), 327-336; Porsolt, Rev. Neurosci. 11 (2000), 53-58). […] Compared to vehicle application, no influence of control double stranded RNA (5′-[…]-3′) on floating behaviour (passive stress coping) was detected. […] This interpretation becomes moreover evident when the effects of antidepressants on passive stress coping behaviour in the forced swim test are visualized (FIG. 5). Passive stress coping behaviour increased after acute intrahippocampal injection (bilateral, dentate gyrus) of siRNA targeting P2X7R. The Porsolt's forced swim test is a standard test used to assess the effectiveness of antidepressants and it has been proven by many studies that the test is selectively sensitive for these effects, given that the right animal model is used. The paradigm has been widely used to test pharmaceutical compounds and to validate animal models of depression, which show an increase in passive behaviour as do the mice where P2X7R has been inhibited (siRNA).
The forced swim test is a standard test that measures primary stress-induced reductions in avoidance or escape, termed behavioural despair. The test is used to determine the effectiveness of antidepressants, test new pharmaceutical compounds and validate animal models of depression (Porsolt et al., Arch. Int. Pharmacodym. 229 (1977), 327-336; Porsolt, Rev. Neurosci. 11 (2000), 53-58; Rénéric et al., Behav. Brain Res. 136 (2002), 521-532; Page et al., Psychopharmacology 165 (2003), 194-201; Kelliher et al., Psychoneuroendocrinology 28 (2003), 332-347). The test consists of placing a mouse for a period of 5 minutes into a glass cylinder containing water. Under such circumstances, the mouse cannot touch the bottom of the cylinder and is thus forced to swim. Time, latency and frequency of struggling versus floating are scored as behavioural parameters. […] Increased struggling (i.e. active attempts to escape) indicates active coping behaviour that can be interpreted as an improvement of depression-like symptoms. For example, treatment with serotonergic antidepressants reduce the total time spent floating (Borsini, Neurosci. Biobehav. Rev. 19 (1995), 377-395; Redrobe and Bourin, Psychopharmacology 138 (1998), 198-206, and in parallel increases the time of active behaviour (i.e. swimming or struggling; Lucki et al., Psychopharmacology 155 (2001), 315-322).
The behaviour of individual mice was assessed using the Porsolt's forced swim test 24 hours after injection of vehicle solution, KN-62, or oATP. A pre-exposure of 5 minutes to the test was performed 15-17 minutes after administration of vehicle, KN-62, or oATP. A description of the Porsolt's forced swim test is given in example 9. […]

activation of P2X7R by the agonist (BzATP) after antagonist pre-treatment, calcium influx [1]: inhibited
Structure (SMILES): Nc1ncnc2c1ncn2[C@@H](C=O)O[C@@H](C=O)COP(=O)(O)OP(=O)(O)OP(=O)(O)O [oATP]
number of fluorescent cells after antagonist pre-incubation (ethidium bromide entry) [2]: reduction in the number of fluorescent cells | active escape attempts (time, frequency, latency of struggling) in the forced swim test [3]: no changes | passive behaviour (time, frequency, latency of floating) in the forced swim test [3]: no changes
